According to paper PMC3716696 (PLoS ONE, 2013):
Entries after “also recorded” stand apart in the source; their conditions may differ. Non-standard residues stand in square brackets, D forms with d. Residues, ends and D or L forms follow the SMILES beside them. *: point of attachment. Sta = CC(C)C[C@H](N)[C@@H](O)CC(=O)O; Isovaleryl = CC(C)CC(=O)*

What was measured:
[1] = in vivo; cited from earlier work
[2] = tested on: SP-degrading / SP1–9-producing activity of spinal cord membrane lysates; test: SP degradation in spinal cord membrane lysates with metalloprotease inhibitors; type: biochemical, mouse; conditions: membrane lysate 1 mg/mL, 30 min pre-incubation 37°C, SP 100 μM, 1 h 37°C, LC-MS, N = 4; for Inhibition of SP degradation (in words): inhibitor 100 μM (TIMP2 4 μM)
Protocol: All inhibitors were present at 100 μM except for TIMP2, which was present at 4 μM. After the pre-incubation with each inhibitor, either SP or SP1–9 was added to 100 μM final concentration. The reactions proceeded at 37°C for 1 h. Dried samples were dissolved in 0.1% formic acid (aq) and analyzed by LC-MS/MS for SP or SP1–9-degrading activity.
(§1) For LC-MS analysis, an Agilent 6220 LC-ESI-TOF instrument was used in the positive mode. A Bio-Bond C18 (5 μm, 150×2.1 mm) column was used together with a precolumn (C18, 3.5 μm, 2×20 mm). Following injection of 25 μL of 5 μM solutions, the samples were trapped at an isocratic flow rate of 0.1 ml/min for five minutes and eluted at a flow rate of 0.25 mL/min via a mobile phase gradient of 2–100% B in 40 min (Mobile Phase A: 0.1% formic acid in water, Mobile Phase B: 0.1% formic acid in acetonitrile). MS analysis was performed with an electrospray ionization (ESI) source. The capillary voltage was set at 4.0 kV and the fragmentor voltage to 100 V. The drying gas temperature was 350°C, the drying gas flow rate was 10 L/min, and the nebulizer pressure was 45 psi. Data was collected in the centroid mode using a mass range of 100–500 Da. The peptides were analyzed by mass extraction of the +3 charge state.

[3] = tested on: SP-degrading activity of spinal cord membrane lysates; test: SP degradation in spinal cord membrane lysates with general enzyme class inhibitors; type: biochemical, mouse; conditions: membrane lysate 1 mg/mL, 30 min pre-incubation 37°C, SP 100 μM, 1 h 37°C; 1 mM o-phenanthroline, 10 μM pepstatin A, 1 mM PMSF; LC-MS, N = 4
Protocol: The membrane fraction of spinal cord lysates (1 mg/mL) were pre-incubated at 37°C for 30 minutes separately with each of the following inhibitors (N = 4): 10 μM E-64 (cysteine protease), 1 mM iodoacetamide (cysteine protease), 1 mM o-phenanthroline (metalloprotease), 10 μM pepstatin A (aspartyl protease), 1 mM phenylmethylsulfonyl fluoride (PMSF, serine protease), 1 mM diisopropylfluorophosphate (serine protease), and vehicle (PBS with DMSO for 5% DMSO final concentration in reaction). After the pre-incubation with each inhibitor, SP was added to 100 μM final concentration. The reactions proceeded at 37°C for 1 h. Dried samples were dissolved in 0.1% formic acid (aq) and analyzed by LC-MS/MS for SP-degrading activity (i.e. formation of SP1–7 and SP1–9) using the method outlined in “MALDI-TOF MS and LC-MS/MS analysis of in vitro peptides” section.
as §1

[4] = N-terminal SP fragment formation in spinal cord soluble and membrane lysates; type: in vitro ADME, mouse; conditions: for Degradation product of SP1–9 in spinal cord lysates: SP1–9 100 μM incubated in spinal cord lysate, 37°C, 1 h, LC-MS (Fig. S3)
Protocol: Three mouse spinal cords were dounce homogenized in 1.1 mL phosphate buffered saline (PBS) on ice and then sonicated for 15 s at 4°C. Tissue debris was separated by centrifuging the sample at 5,000×g for 20 min at 4°C. The soluble fraction was collected after ultracentrifugation of the sample at 55,000×g for 1 h at 4°C. The membrane pellet that remained was washed 3x with 600 μL PBS. The pellet was then suspended in 100 μL PBS by sonication for 5 s at 4°C. The sample was ultracentrifugation at 55,000×g for 1 h at 4°C and the supernatant was separated as a wash membrane sample. The pellet was suspended in 100 μL of 1 mM sodium deoxycholate (Alfa Aesar) by sonication for 5 s at 4°C then stirred for 30 min at 4°C. Ultracentrifugation of the sample at 55,000×g for 1 h at 4°C separated the supernatant as a 1 mM deoxycholate-solubilized membrane fraction. The remaining pellet was washed 3x with 600 μL 1 mM deoxycholate solution. The pellet was subsequently suspended in 4, 12, and 24 mM deoxycholate following the same cycle. The final pellet was suspended in 100 μL PBS. The protein content in the soluble and membrane lysates was quantified by the Bradford assay. […] The reactions were quenched with neat formic acid and speed vac dried. The samples were dissolved in 0.1% formic acid (aq) and analyzed by MALDI-TOF MS for SP-degrading activity (i.e. formation of SP1–7 and SP1–9) using the method outlined in “MALDI-TOF MS and LC-MS/MS analysis of in vitro peptides” section. […]
MALDI-TOF MS was performed with α-cyano-4-hydroxycinnamic acid as the matrix using 2 μL of a 50 μM reconstituted degradation reaction solution (based on initial SP quantities). […]
To determine the candidate proteolytic pathway or pathways for SP degradation in the spinal cord, we separated tissue lysates from mouse spinal cords into membrane and soluble fractions, incubated them with full-length SP for varying lengths of time (15, 60, 240 min) and then analyzed the quenched reactions by MALDI mass spectrometry to identify any SP fragments that had been produced. […]

NEP [5] = test: SP degradation and SP levels in WT and Nep–/– spinal cord; type: in vitro ADME, mouse; conditions: 1 mg/mL WT and Nep–/– spinal cord membrane lysates, LC-MS/MS
Protocol: The levels of SP in WT and Nep^–/– mice spinal cord tissue (N = 4) were compared by IDMS using Top 6 MS/MS as described previously. The degradation of SP was compared in 1 mg/mL WT and Nep^–/– mice spinal cord membrane lysates using LC-MS/MS analysis following the above method.

Meprin 1A = conditions: cited from earlier work
[6] = cell lysates with synthetic peptide; synthetic peptide introduced into a living tissue (pseudo-in vivo); conditions: cited from earlier work
ACE = conditions: cited from earlier work
[7] = membrane fraction of spinal cord lysates (1 mg/mL) with metalloprotease inhibitors; conditions: mouse, 37°C, up to 1 h
[8] = membrane fraction of mouse spinal cord lysates (1 mg/mL); conditions: mouse (C57BL/6), 37°C, up to 240 min
Pitrilysin = conditions: cited from earlier work
[9] = mouse spinal cord tissue (endogenous peptides, boiled and extracted); conditions: mouse (C57BL/6)
ECE-1 = conditions: cited from earlier work
ECE-2 = conditions: cited from earlier work
[10] = soluble fraction of mouse spinal cord lysates (1 mg/mL); conditions: mouse (C57BL/6), 37°C, up to 240 min
MMP9 = conditions: cited from earlier work
NEP [11] = conditions: cited from earlier work
[12] = membrane fraction of spinal cord lysates (1 mg/mL) with class-selective inhibitors; conditions: mouse, 37°C, up to 1 h
[13] = membrane fraction of spinal cord lysates (1 mg/mL); conditions: mouse (C57BL/6), 37°C, up to 1 h

CNC(=O)[C@H](Cc1c[nH]c2ccccc12)NC(=O)[C@@H](CC(=O)NO)CC(C)C [GM6001]
Bioavailability [1]: bioavailable | Inhibition of SP degradation (in words) [2]: most effective compound at preventing SP degradation; also recorded: least amount of SP degradation | Decrease in SP1–9 production compared to vehicle ([2]; inhibitor 100 μM): greater than 10 fold | Increase in SP levels compared to vehicle ([2]; inhibitor 100 μM): ~2 fold | Inhibition of SP1–9 production (in words) ([2]; inhibitor 100 μM): best inhibitor of SP1–9 production; also recorded: strongly inhibited; also recorded: potently blocks

c1cnc2c(c1)ccc1cccnc12 [O-phenanthroline]
Effect on SP1–7 production [3]: regulate SP1-7 production | Inhibition of SP1–9 production [3]: most potent inhibitor of SP1–9 production; also recorded: strongest inhibitor of SP1–9 production | Inhibition of SP degradation (SP levels vs vehicle) [3]: most effective compound at inhibiting SP degradation; also recorded: twice as high as the vehicle control

O=S(=O)(F)Cc1ccccc1 [PMSF, phenylmethylsulfonyl fluoride]
Effect on SP1–7 production [3]: regulate SP1-7 production | Inhibition of SP1–9 production [3]: small effect | Inhibition of SP degradation (SP levels vs vehicle) [3]: Modest increases

N=C(N)NCCC[C@H](N)C(=O)N1CCC[C@H]1C(=O)N[C@@H](CCCCN)C(=O)N1CCC[C@H]1C(=O)N[C@@H](CCC(N)=O)C(=O)N[C@@H](CCC(N)=O)C(=O)N[C@@H](Cc1ccccc1)C(=O)N[C@@H](Cc1ccccc1)C(=O)NCC(=O)O [SP1–9] (H-RPKPQQFFG-OH)
Degradation product of SP1–9 in spinal cord lysates [4]: SP1–7 was produced | Degradation product of SP1–9 in spinal cord lysates ([4]; listed as SP 1–9): SP1–7 is produced

CSCC[C@H](NC(=O)[C@H](CC(C)C)NC(=O)CNC(=O)[C@H](Cc1ccccc1)NC(=O)[C@H](Cc1ccccc1)NC(=O)[C@H](CCC(N)=O)NC(=O)[C@H](CCC(N)=O)NC(=O)[C@@H]1CCCN1C(=O)[C@H](CCCCN)NC(=O)[C@@H]1CCCN1C(=O)[C@@H](N)CCCN=C(N)N)C(N)=O [SP, Substance P]
SP fragments formed in soluble fraction of spinal cord lysate ([4]; pH 7.34): No discernable fragments | SP degradation in NEP+/+ vs NEP–/– spinal cord lysates (NEP [5]): no significant difference

CCCCC[C@H](CC(=O)NO)C(=O)N[C@H](C(=O)N1CCC[C@H]1CO)C(C)C [actinonin]
Inhibition of SP degradation (in words) [2]: could inhibit | Inhibition of SP1–9 production (in words) ([2]; inhibitor 100 μM): could inhibit

CC(C)CC(=O)N[C@H](C(=O)N[C@H](C(=O)N[C@@H](CC(C)C)[C@@H](O)CC(=O)N[C@@H](C)C(=O)N[C@@H](CC(C)C)[C@@H](O)CC(=O)O)C(C)C)C(C)C [pepstatin A] (Isovaleryl-VV[Sta]A[Sta]-OH)
Effect on SP1–7 production [3]: regulate SP1-7 production | Inhibition of SP1–9 production [3]: small effect | Inhibition of SP degradation (SP levels vs vehicle) [3]: Modest increases

CC(C)C[C@H](NP(=O)(O)O[C@@H]1O[C@@H](C)[C@H](O)[C@@H](O)[C@H]1O)C(=O)N[C@@H](Cc1c[nH]c2ccccc12)C(=O)O [phosphoramidon]
Inhibition of SP degradation (in words) [2]: could inhibit | Inhibition of SP1–9 production (in words) ([2]; inhibitor 100 μM): could inhibit | Inhibition of SP1–9 production (in words) ([2]; inhibitor 100 μM, listed as Phosphoramidon): slows SP1–9 production

H2N-RPKPQQFFGLM-CONH2
cleaved bond (Meprin 1A): G9-L10 | fragment found [6]: SP1–9; also recorded: SP1–8; also recorded: SP1–7; also recorded: SP5–11; also recorded: SP6–11; also recorded: SP7–11; also recorded: SP8–11 | cleaved bond (ACE): G9-L10 | cleaved bond [7]: G9-L10, major | cleaved bond [8]: G9-L10, major | fragment found [8]: SP1–10; also recorded: SP1–8; also recorded: SP1–7; also recorded: SP3-11 | cleaved bond (Pitrilysin): G9-L10 | cleaved bond [9]: G9-L10, major | fragment found [9]: SP1–7, major | cleaved bond (ECE-1): G9-L10 | cleaved bond (ECE-2): G9-L10 | not cleaved [10]: No discernable fragments appeared in the soluble fraction | cleaved bond (MMP9): G9-L10 | cleaved bond (NEP [11]): G9-L10 | cleaved bond [12]: G9-L10, major | fragment found [12]: SP1–7

H-RPKPQQFFG-OH
fragment found [13]: SP1–7
